Assay results from patent US9944607B2, “Thiohydantoin derivatives and uses thereof” (Whitehead Institute for Biomedical Research, priority 2012, dated 2018).
Converted amounts (≈) assume the structure as drawn. Read-outs that look alike come from different tables or passages of the source.

Tests used:
Candida albicans CaCi-2 = experiment: Primary assay: C. albicans CaCi-2 growth inhibition (Alamar Blue); type: cell-based; as to Growth Inhibition Activity, IC50 (μM), C. albicans CaCi-2, values marked ‡: less than 0.10 µM in AID 623899
Candida albicans CaCi-17 = experiment: Primary assay: C. albicans CaCi-17 growth inhibition (Alamar Blue); type: cell-based; settings: Candida albicans, read-out: Growth Inhibition Activity, IC50 (μM), C. albicans (n = 3) CaCi-17
[1] = tested on: NIH-3T3 mammalian fibroblasts; experiment: Counterscreen mammalian cell toxicity assay (Alamar Blue); type: cell-based, murine; settings: for Growth Inhibition Activity, IC50 (μM), 3T3 Fibroblasts (n = 1): Table 4, 48 hours, tested up to 26 μM
Protocol: Quiescent murine fibroblasts were subjected to incubation with compounds of interest for 48 hours. Subsequent cell viability was determined via measuring Alamar Blue fluorescence.
Procedures • After overnight culture, pin compounds into wells at 100 nL/well using the CyBio CyBi-Well pinning instrument. • Return the plates to the tissue culture incubator and incubate the culture for an additional 48 hours at 37° C. under 5% CO2. • At the completion of this incubation, add Alamar Blue solution diluted 1:40 in PBS to each well (10 μL/well) to achieve a final dilution of 1:200. • Incubate the plates for an additional 2-3 hours at 37° C. under 5% CO2. • Read the Relative Fluorescence Intensity (RFU) of wells on a standard plate reader as a measure of relative cell growth. […] 4.4.

C. glabrata (ATCC 2001) [2] = experiment: Secondary C. glabrata inhibition in glycerol media (OD600); type: cell-based, Candida glabrata; settings: for IC50: read-out: Growth Inhibition Activity, IC50 (μM), C. glabrata (n = 3) On glycerol
Text: (§1) Cell Lines. • Candida albicans CaCi-2; a drug-resistant clinical isolate was provided by the Whitehead Institute (Redding et al., Clin. Infect. Dis. 1994, 18(2):240-2). This strain was used for the primary assay. • Candida albicans CaCi-17; a strongly drug-resistant clinical isolate was provided by the Whitehead Institute (Redding et al., Clin. Infect. Dis. 1994, 18(2):240-2). This strain was used for the primary assay • Saccharyomyces cerevisiae W303-1a (ATCC 208352); a well-characterized Saccharomyces strain used for determination of glycolytic vs. respiratory metabolism, as well as in the mitochondrial disruption assay. • Candida glabrata (ATCC 2001); used for determination of glycolytic vs. respiratory metabolism. • NIH-3T3 mammalian fibroblasts (ATCC; CRL no.1658); used for mammalian toxicity assays. […]
(§2) Saccharomyces, while not a major human pathogen, is a useful lab model with well-developed genetic tools available. Candida glabrata is an increasingly prominent clinical problem for immune-compromised patients but with fewer genetic tools available with which to study it. These organisms can utilize alternative metabolic pathways to support growth and survival depending on the carbon source. By comparing the concentration-dependent inhibition of yeast growth in glycerol relative to glucose media, a quantitative assessment of a compound's ability to disrupt respiration can be determined. […].
(§3) Clear, flat bottom, black 384-well plates (Corning Catalog no. 3712BC; Lot no. 35808016); Amphotericin B (Sigma Catalog no. A2411) 15 mM stock solution in DMSO; Pen/Strep (Gibco Catalog no. 10378-016; Lot no21040170) 100× in PBS.
(§4) Synthetic defined growth medium. Complete Supplement Mixture; (Sunrise Science, Catalog No. 1001-100); Yeast Nitrogen Base without ammonium sulfate (MP Biomedicals, Catalog No. 4027-012); Glycerol (Sigma Catalog No. G-9012). • Prepare medium by dissolving 0.79 g Complete Supplement Mixture and 1.7 g Yeast Nitrogen Base in 800 mL water. • Add 20 mL of glycerol. Adjust final volume to 1000 mL. Filter sterilize.
(§5) Fungal Inoculum. Test Strains: C. glabrata (ATCC 2001) and Saccharomyces cerevisiae W303. • Inoculate 100 μL of yeast from cryopreserved stock into 250 mL shaker flask containing 20 mL growth medium. Shake at 30° C. overnight (about 16 hours). • Read OD 600 of 1 mL of fungal culture in a cuvette using a standard optical density reader (Eppendorf BioPhotometer Plus), with growth medium as a background blank. • Dilute to desired volume of fungal inoculum to produce an OD600 reading of 0.005 (S. cerevisiae) or 0.004 (C. glabrata).
(§6) Procedures • Use a Thermo Combi nL to dispense 20 μL/well of assay media into all wells. • Add 2 μL of Amphotericin B to control wells. • Pin 100 nL of test compound from compound plates into assay plates using a CyBi-Well pin tool. • Dispense 20 μL/well of culture into the assay media in all wells. • Incubate the plates in a humidified (90% humidity) Liconic incubator at 37° C. without agitation for 48 hours. • Shake plates briefly. • Read OD600 of wells on a standard plate reader as measure of relative fungal growth. Envision (Perkin Elmer) plate reader settings: Ex Photometric 600, Top read. Secondary Glucose Assay Protocol (AID 623971, 623967, 624013, 624025) Materials and Reagents

C. glabrata (ATCC 2001) [3] = experiment: Secondary C. glabrata inhibition in glucose media (OD600); type: cell-based, Candida glabrata; settings: for IC50: read-out: Growth Inhibition Activity, IC50 (μM), C. glabrata (n = 3) On glucose
Text: as §1, §2, §6
(§7) Clear, flat bottom, black 384-well plates (Corning, Catalog No. 3712BC; Lot No. 35808016); Amphotericin B (Sigma, Catalog no. A2411) 15 mM stock solution in DMSO; Pen/Strep (Gibco, Catalog No. 10378-016; Lot no21040170) 100× in PBS.
(§8) Synthetic defined growth medium. Complete Supplement Mixture; (Sunrise Science, Catalog No. 1001-100); Yeast Nitrogen Base without ammonium sulfate (MP Biomedicals, Catalog No. 4027-012); Glucose (Sigma, Catalog No. G7021). • Prepare medium by dissolving 0.79 g of Complete Supplement Mixture and 1.7 g of Yeast Nitrogen Base in 800 mL of water. • Add 20 g of glucose. Adjust final volume to 1000 mL. Filter sterilize.
(§9) Fungal Inoculum. Test Strains: C. glabrata (ATCC 2001) and Saccharomyces cerevisiae W303. • Inoculate […] of yeast from cryopreserved stock into a 250 mL shaker flask containing 20 mL of growth medium. Shake at 30° C. overnight (about 16 hours). • Read OD 600 of 1 mL of fungal culture in a cuvette using a standard optical density reader (Eppendorf BioPhotometer Plus), with growth medium as a background blank. • Dilute to desired volume of fungal inoculum to produce an OD600 reading of 0.005 (S. cerevisiae) or 0.004 (C. glabrata).
as §6, with “read. 4.5.” for “read.”, “Mitochondrial Disruption” for “Glucose”, “Assay” for “Assay Protocol”, “No. 624062” for “623971, 623967, 624013, 624025) Materials”, “624068)” for “Reagents”

[4] = tested on: Saccharomyces cerevisiae W303; experiment: Secondary S. cerevisiae inhibition in glycerol media (OD600); type: cell-based; settings: for IC50: read-out: Growth Inhibition Activity, IC50 (μM), S. cerevisiae (n = 3) On glycerol
Text: as §1, §2, §3, §4, §5, §6

[5] = tested on: Saccharomyces cerevisiae W303; experiment: Secondary S. cerevisiae inhibition in glucose media (OD600); type: cell-based; settings: for IC50: read-out: Growth Inhibition Activity, IC50 (μM), S. cerevisiae (n = 3) On glucose
Text: as §1, §2, §6, §7, §8, §9
as §6, with “read. 4.5.” for “read.”, “Mitochondrial Disruption” for “Glucose”, “Assay” for “Assay Protocol”, “No. 624062” for “623971, 623967, 624013, 624025) Materials”, “624068)” for “Reagents”

[6] = Solubility in PBS pH 7.4 with 1% DMSO; settings: for solubility at 24 h: phosphate buffered saline with 1% DMSO, pH 7.4, aqueous buffer, kinetic from dmso stock
Protocol: Solubility was determined in phosphate buffered saline (PBS) pH 7.4 with 1% DMSO. Each compound was prepared in duplicate at 100 μM in both 100% DMSO and PBS with 1% DMSO. Compounds were allowed to equilibrate at room temperature with a 250 rpm orbital shake for 24 hours. After equilibration, samples were analyzed by UPLC-MS (Waters, Milford, Mass.) with compounds detected by SIR detection on a single quadrupole mass spectrometer. The DMSO samples were used to create a two-point calibration curve to which the response in PBS was fit.

[7] = Candida albicans, CACI2; read-out: Growth Inhibition Activity, IC50 (μM), C. albicans CaCi-2, values marked ‡
[8] = CACI17, Table 4, n = 3, 48 hours, tested up to 26 μM
[9] = Nakaseomyces glabratus, ATCC2001, Table 8, n = 3, glycerol media, 48 hours, tested up to 3 μM
[10] = Nakaseomyces glabratus, ATCC2001, Table 8, n = 3, glucose media, 48 hours, tested up to 3 μM
[11] = Saccharomyces cerevisiae, W303, Table 8, n = 3, glycerol media, 48 hours, tested up to 3 μM
[12] = Saccharomyces cerevisiae, W303, Table 8, n = 3, glucose media, 48 hours, tested up to 3 μM
[13] = Nakaseomyces glabratus, ATCC2001, 48 h
[14] = Saccharomyces cerevisiae, W303, 48 h
[15] = Table 8, n = 3, glycerol media, 48 hours, tested up to 3 μM
[16] = Table 8, n = 3, glucose media, 48 hours, tested up to 3 μM

Row | SMILES | IC50 (Candida albicans CaCi-2; [7]) [µM] | IC50 (Candida albicans CaCi-17; [8]) [µM] | Growth Inhibition Activity, IC50 (μM), 3T3 Fibroblasts (n = 1) [1] | IC50 (C. glabrata (ATCC 2001) [2]; [9]) [µM] | IC50 (C. glabrata (ATCC 2001) [3]; [10]) [µM] | IC50 [4, 11] [µM] | IC50 [5, 12] [µM] | IC50 (Candida albicans CaCi-17; CACI17, 48 h) [µM] | IC50 (C. glabrata (ATCC 2001) [2]; [13]) [µM] | IC50 (C. glabrata (ATCC 2001) [3]; [13]) [µM] | IC50 [4, 14] [µM] | IC50 [5, 14] [µM] | solubility at 24 h [6] [µM] | other results
1 | CCOC(=O)N1C(=O)C2(CCCCC2)N(c2ccc(F)cc2)C1=S [compound 56604860] | 0.04 | 1 | Inactive | 0.011 | > 3 | 0.004 | > 3 | – | – | – | – | – | – | PBS Solubility ([6]; Table 4, PBS pH 7.4 with 1% DMSO, 24 hours, room temperature): 1.1 µM
2 | CCOC(=O)N1C(=O)C2(CCCCC2)N(c2ccccc2)C1=S [compound 56604821] | – | – | Inactive | – | – | – | – | 4.2 | 0.026 | > 3 | 0.015 | > 3 | 1.6 (≈ 0.532 µg/mL) | IC50 (Candida albicans CaCi-2; Candida albicans, CACI2, 48 h, read-out: Growth Inhibition Activity, IC50 (μM), C. albicans (n = 3) CaCi-2): 0.2 µM
3 | CCOC(=O)N1C(=O)C2(CCCCC2)N(c2ccc(C#N)cc2)C1=S [compound 56604847] | 0.08 | 1.8 | Inactive | 0.033 | > 3 | 0.004 | > 3 | – | – | – | – | – | < 1 | –
4 | CCOC(=O)N1C(=O)C2(CCCCC2)N(c2ccc(Cl)cc2)C1=S [compound 56604865] | – | – | – | – | – | – | – | 1.4 | 0.022 | > 3 | 0.006 | > 3 | < 1 | IC50 (Candida albicans CaCi-2; Candida albicans, CACI2, read-out: Growth Inhibition Activity, IC50 (μM), C. albicans CaCi-2, values marked ‡): 0.06 µM; IC50 ([1]; Mus musculus, NIH3T3, 48 h, read-out: Growth Inhibition Activity, IC50 (μM), 3T3 Fibroblasts (n = 1)): 22.3 µM
5 | C[C@@H]1[C@H](O)[C@@H](C)/C=C/C=C/C=C/C=C/C=C/C=C/C=C/[C@H](O[C@@H]2O[C@H](C)[C@@H](O)[C@H](N)[C@@H]2O)C[C@@H]2O[C@](O)(C[C@@H](O)C[C@@H](O)[C@H](O)CC[C@@H](O)C[C@@H](O)CC(=O)O[C@H]1C)C[C@H](O)[C@H]2C(=O)O [Amphotericin B, reference compound] | – | – | – | – | – | – | – | – | – | – | – | – | – | IC50 (C. glabrata (ATCC 2001) [2]; [15]): 0.62 µM; Growth inhibition of C. glabrata on glycerol IC50 (C. glabrata (ATCC 2001) [2]; figure legends and Tables 9, 10, 13, AID 623965): significantly inhibited; IC50 (C. glabrata (ATCC 2001) [3]; [16]): 1.2 µM; Growth inhibition of C. glabrata on glucose IC50 (C. glabrata (ATCC 2001) [3]; figure legends and Tables 9, 10, 13, AID 623967): significantly inhibited; IC50 [4, 15]: 0.26 µM; Growth inhibition of S. cerevisiae on glycerol IC50 ([4]; figure legends and Tables 9, 10, 13, AID 623969): significantly inhibited; IC50 [5, 16]: 0.38 µM; Growth inhibition of S. cerevisiae on glucose IC50 ([5]; figure legends and Tables 9, 10, 13, AID 623971): significantly inhibited
